Test results published in patent publication US20220192935A1, “COMPOSITION FOR A TOPICAL APPLICATION ON THE SKIN” (Biodermic Health & Beauty GmbH & Co. KG, priority 2019, published 2022).

Tested on: organisms of the skin flora (Corynebacterium minutissimum, Streptococcus mitis, Staphylococcus epidermidis, Staphylococcus galinarum, Propionibacterium acnes …)
Experiment: Investigation of single ingredients for influence on the growth of the organisms of the skin flora
Type: cell-based
Details: single ingredient, result in words
From the text: The surprising positive effect of the above-described substances or substance groups on the growth of the microorganisms of the skin flora has been confirmed by investigations on microorganisms of the skin flora. Specifically, this involved analyzing the growth of the following species: Corynebacterium minutissimum, Streptococcus mitis, Staphylococcus epidermidis, Staphylococcus galinarum, Propionibacterium acnes, and Malassezia furfur, Malassezia sympodialis, Malassezia globosa and Malassezia restricta. The positive effect can be attributed to the fact that the microorganisms present on the skin cannot make use of the substances investigated. […] Investigations on Corynebacterium minutissimum, Streptococcus mitis, Staphylococcus epidermidis, Staphylococcus galinarum, Propionibacterium acnes, and Malassezia furfur, Malassezia sympodialis, Malassezia globosa and Malassezia restricta have confirmed this effect. The positive effect of these emulsifiers in terms of their influence on the growth of organisms of the skin flora has been confirmed by investigations on Corynebacterium minutissimum, Streptococcus mitis, Staphylococcus epidermidis, Staphylococcus galinarum, Propionibacterium acnes, and Malassezia furfur, Malassezia sympodialis, Malassezia globosa and Malassezia restricta. […]

Substance: Caprylic/Capric Triglyceride
- influence on the growth of the organisms of the skin flora: No growth-promoting influence was detected
